Columns and labels:
[1] = xn = mol fraction of the nth substance listed; settings: 100 kPa, Liquid, Vibrating tube method
[2] = refractive index (Na D-line) (dimensionless); xn = mol fraction of the nth substance listed; settings: 100 kPa, Liquid, Standard Abbe refractometry

CCCCn1cc[n+](C)c1.F[B-](F)(F)F [1-butyl-3-methylimidazolium tetrafluoroborate] + O
Settings | mass density, [1] [kg/m3] | refractive index, [2]
293.15 K, x1 = 0.0994 | 1106.69 | 1.383
293.15 K, x1 = 0.2005 | 1143.19 | 1.397
293.15 K, x1 = 0.3003 | 1161.69 | 1.406
293.15 K, x1 = 0.4003 | 1173.6 | 1.411
293.15 K, x1 = 0.5006 | 1182.13 | 1.414
293.15 K, x1 = 0.6004 | 1188.42 | 1.4165
293.15 K, x1 = 0.7008 | 1193.17 | 1.418
293.15 K, x1 = 0.8006 | 1196.75 | 1.42
293.15 K, x1 = 0.899 | 1199.6 | 1.4215
303.15 K, x1 = 0.0994 | 1100.29 | 1.379
303.15 K, x1 = 0.2005 | 1135.92 | 1.395
303.15 K, x1 = 0.3003 | 1154.24 | 1.403
303.15 K, x1 = 0.4003 | 1166.15 | 1.409
303.15 K, x1 = 0.5006 | 1174.73 | 1.4125
303.15 K, x1 = 0.6004 | 1181.09 | 1.415
303.15 K, x1 = 0.7008 | 1185.92 | 1.4165
303.15 K, x1 = 0.8006 | 1189.58 | 1.418
303.15 K, x1 = 0.899 | 1192.49 | 1.4195
313.15 K, x1 = 0.0994 | 1093.06 | 1.3765
313.15 K, x1 = 0.2005 | 1128.35 | 1.394
313.15 K, x1 = 0.3003 | 1146.77 | 1.4015
313.15 K, x1 = 0.4003 | 1158.78 | 1.4075
313.15 K, x1 = 0.5006 | 1167.43 | 1.41
313.15 K, x1 = 0.6004 | 1173.85 | 1.4125
313.15 K, x1 = 0.7008 | 1178.71 | 1.414
313.15 K, x1 = 0.8006 | 1182.39 | 1.416
313.15 K, x1 = 0.899 | 1185.31 | 1.4175
323.15 K, x1 = 0.0994 | 1085.97 | 1.376
323.15 K, x1 = 0.2005 | 1120.89 | 1.393
323.15 K, x1 = 0.3003 | 1139.33 | 1.4015
323.15 K, x1 = 0.4003 | 1151.42 | 1.4055
323.15 K, x1 = 0.5006 | 1160.15 | 1.4075
323.15 K, x1 = 0.6004 | 1166.65 | 1.4105
323.15 K, x1 = 0.7008 | 1171.59 | 1.4125
323.15 K, x1 = 0.8006 | 1175.31 | 1.414
323.15 K, x1 = 0.899 | 1178.26 | 1.415
333.15 K, x1 = 0.0994 | 1079.15 | 1.3755
333.15 K, x1 = 0.2005 | 1113.47 | 1.39
333.15 K, x1 = 0.3003 | 1131.87 | 1.401
333.15 K, x1 = 0.4003 | 1144.01 | 1.405
333.15 K, x1 = 0.5006 | 1152.8 | 1.4075
333.15 K, x1 = 0.6004 | 1159.37 | 1.4095
333.15 K, x1 = 0.7008 | 1164.36 | 1.411
333.15 K, x1 = 0.8006 | 1168.12 | 1.4125
333.15 K, x1 = 0.899 | 1171.04 | 1.4135
343.15 K, x1 = 0.0994 | 1072.21 | 1.3755
343.15 K, x1 = 0.2005 | 1106.02 | 1.39
343.15 K, x1 = 0.3003 | 1124.41 | 1.401
343.15 K, x1 = 0.4003 | 1136.62 | 1.4045
343.15 K, x1 = 0.5006 | 1145.48 | 1.407
343.15 K, x1 = 0.6004 | 1152.11 | 1.407
343.15 K, x1 = 0.7008 | 1157.17 | 1.4085
343.15 K, x1 = 0.8006 | 1161 | 1.409
343.15 K, x1 = 0.899 | 1164.1 | 1.411

CCCCn1cc[n+](C)c1.O=S(=O)([O-])C(F)(F)F [1-butyl-3-methylimidazolium trifluoromethanesulfonate] + O
Settings | mass density, [1] [kg/m3] | refractive index, [2]
293.15 K, x1 = 0.1001 | 1176.55 | 1.396
293.15 K, x1 = 0.2003 | 1227.39 | 1.4145
293.15 K, x1 = 0.3007 | 1251.78 | 1.421
293.15 K, x1 = 0.4003 | 1266.32 | 1.4265
293.15 K, x1 = 0.5001 | 1275.87 | 1.4301
293.15 K, x1 = 0.5998 | 1282.43 | 1.432
293.15 K, x1 = 0.6995 | 1287.53 | 1.434
293.15 K, x1 = 0.8017 | 1291.5 | 1.4355
293.15 K, x1 = 0.8993 | 1294.38 | 1.4365
303.15 K, x1 = 0.1001 | 1169.14 | 1.3945
303.15 K, x1 = 0.2003 | 1219.44 | 1.411
303.15 K, x1 = 0.3007 | 1243.64 | 1.4195
303.15 K, x1 = 0.4003 | 1258.57 | 1.4245
303.15 K, x1 = 0.5001 | 1267.92 | 1.428
303.15 K, x1 = 0.5998 | 1274.38 | 1.4305
303.15 K, x1 = 0.6995 | 1279.4 | 1.4315
303.15 K, x1 = 0.8017 | 1283.28 | 1.4335
303.15 K, x1 = 0.8993 | 1286.22 | 1.4345
313.15 K, x1 = 0.1001 | 1161.07 | 1.3925
313.15 K, x1 = 0.2003 | 1210.91 | 1.4095
313.15 K, x1 = 0.3007 | 1235.41 | 1.418
313.15 K, x1 = 0.4003 | 1250.38 | 1.423
313.15 K, x1 = 0.5001 | 1259.88 | 1.426
313.15 K, x1 = 0.5998 | 1266.41 | 1.4285
313.15 K, x1 = 0.6995 | 1271.39 | 1.43
313.15 K, x1 = 0.8017 | 1275.29 | 1.431
313.15 K, x1 = 0.8993 | 1278.29 | 1.4325
323.15 K, x1 = 0.1001 | 1153.14 | 1.3915
323.15 K, x1 = 0.2003 | 1201.99 | 1.409
323.15 K, x1 = 0.3007 | 1226.91 | 1.4175
323.15 K, x1 = 0.4003 | 1241.75 | 1.421
323.15 K, x1 = 0.5001 | 1251.81 | 1.4245
323.15 K, x1 = 0.5998 | 1258.46 | 1.4255
323.15 K, x1 = 0.6995 | 1263.41 | 1.4275
323.15 K, x1 = 0.8017 | 1267.34 | 1.429
323.15 K, x1 = 0.8993 | 1270.34 | 1.4305
333.15 K, x1 = 0.1001 | 1143.31 | 1.3905
333.15 K, x1 = 0.2003 | 1193.54 | 1.408
333.15 K, x1 = 0.3007 | 1218.41 | 1.4155
333.15 K, x1 = 0.4003 | 1233.39 | 1.42
333.15 K, x1 = 0.5001 | 1243.49 | 1.422
333.15 K, x1 = 0.5998 | 1250.25 | 1.424
333.15 K, x1 = 0.6995 | 1255.51 | 1.4255
333.15 K, x1 = 0.8017 | 1259.46 | 1.427
333.15 K, x1 = 0.8993 | 1262.47 | 1.428
343.15 K, x1 = 0.1001 | 1133.11 | 1.389
343.15 K, x1 = 0.2003 | 1184.05 | 1.405
343.15 K, x1 = 0.3007 | 1209.18 | 1.415
343.15 K, x1 = 0.4003 | 1224.41 | 1.4185
343.15 K, x1 = 0.5001 | 1234.79 | 1.4215
343.15 K, x1 = 0.5998 | 1241.97 | 1.423
343.15 K, x1 = 0.6995 | 1247.23 | 1.4235
343.15 K, x1 = 0.8017 | 1251.33 | 1.4255
343.15 K, x1 = 0.8993 | 1254.45 | 1.4265

Source: the NIST ThermoML archive (doi:10.1021/acs.jced.8b00854)
